This note sets out measurements from article PMC4978508, “Using Carbohydrate Interaction Assays to Reveal Novel Binding Sites in Carbohydrate Active Enzymes” (PLoS ONE, 2016).

Like-named read-outs stand apart in the source and are kept apart here.

The term Kd denotes the constant that tells how readily two partners part at equilibrium. Low readings indicate higher affinity, high ones lower affinity.

What all share (type): binding
Experiment [1] addresses T1, GH48-1; processive endoglucanase from Clostridium cellulolyticum (Ruminiclostridium cellulolyticum, UniProt P37698).
T1 construct: gene celCCF; commercial recombinant (NZYtech), no CBM; amine-coupled to CM5 chip
T1 sequence (P37698 30-650 limits assumed): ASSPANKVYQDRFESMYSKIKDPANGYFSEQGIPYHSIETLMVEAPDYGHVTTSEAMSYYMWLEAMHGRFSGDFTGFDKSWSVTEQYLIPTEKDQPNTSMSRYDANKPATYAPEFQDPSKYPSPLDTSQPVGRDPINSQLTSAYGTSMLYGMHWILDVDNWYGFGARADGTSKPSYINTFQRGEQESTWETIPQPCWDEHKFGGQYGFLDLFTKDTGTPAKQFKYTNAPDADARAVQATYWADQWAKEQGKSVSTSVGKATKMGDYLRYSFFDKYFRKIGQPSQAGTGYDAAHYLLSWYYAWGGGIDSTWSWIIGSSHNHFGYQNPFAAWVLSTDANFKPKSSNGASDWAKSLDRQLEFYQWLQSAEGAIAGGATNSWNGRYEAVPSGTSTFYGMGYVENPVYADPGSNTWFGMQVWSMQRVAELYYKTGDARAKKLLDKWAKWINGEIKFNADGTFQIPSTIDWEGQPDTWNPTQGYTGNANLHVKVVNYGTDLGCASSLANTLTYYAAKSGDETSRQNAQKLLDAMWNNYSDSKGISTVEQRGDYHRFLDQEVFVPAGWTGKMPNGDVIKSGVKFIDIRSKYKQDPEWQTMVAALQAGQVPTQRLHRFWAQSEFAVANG
Put plainly: SPR (Biacore T100), enzyme amine-coupled to CM5 chip. Conditions: one-site fit; immobilised enzyme. From the text: SPR (Biacore T100), enzyme amine-coupled to CM5 chip on GH48-1; processive endoglucanase from Clostridium cellulolyticum

Experiment [2] deals with T2, GH6-1; endoglucanase from Thermobifida fusca (Thermobifida fusca, UniProt P26222).
T2 construct: gene celB; gift of David Wilson; amine-coupled to CM5 chip
T2 sequence (P26222 32-322 limits assumed): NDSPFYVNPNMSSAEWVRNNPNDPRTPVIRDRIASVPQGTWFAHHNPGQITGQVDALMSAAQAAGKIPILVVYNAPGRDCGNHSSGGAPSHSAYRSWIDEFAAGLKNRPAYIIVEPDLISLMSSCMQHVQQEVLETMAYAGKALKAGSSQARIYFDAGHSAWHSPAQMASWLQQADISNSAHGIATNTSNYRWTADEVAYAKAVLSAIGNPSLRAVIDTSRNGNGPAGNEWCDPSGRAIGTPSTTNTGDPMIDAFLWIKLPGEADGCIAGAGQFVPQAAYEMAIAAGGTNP
The description is as above. Particulars: one-site fit; immobilised enzyme. The source says:
SPR (Biacore T100), enzyme amine-coupled to CM5 chip on GH6-1; endoglucanase from Thermobifida fusca

Experiment [3] concerns the target T3, GH8-1; endoglucanase from Clostridium thermocellum (Acetivibrio thermocellus, UniProt A3DC29).
T3 construct: gene celA; commercial recombinant (NZYtech), no CBM; amine-coupled to CM5 chip
T3 sequence (A3DC29 33-477): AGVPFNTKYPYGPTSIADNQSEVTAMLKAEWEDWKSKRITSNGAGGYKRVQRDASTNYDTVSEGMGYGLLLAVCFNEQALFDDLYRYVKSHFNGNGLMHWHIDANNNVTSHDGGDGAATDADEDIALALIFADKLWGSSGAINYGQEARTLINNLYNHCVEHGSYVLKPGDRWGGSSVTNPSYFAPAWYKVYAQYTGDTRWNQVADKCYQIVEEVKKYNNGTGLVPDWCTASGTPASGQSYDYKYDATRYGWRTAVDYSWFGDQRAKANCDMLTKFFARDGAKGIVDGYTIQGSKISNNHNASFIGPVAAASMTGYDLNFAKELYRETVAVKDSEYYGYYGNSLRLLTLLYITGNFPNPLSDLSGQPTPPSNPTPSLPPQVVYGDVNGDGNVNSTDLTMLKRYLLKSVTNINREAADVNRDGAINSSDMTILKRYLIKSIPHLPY
The description is as above. Conditions: one-site fit; immobilised enzyme; stoichiometry above 2 (several sites). From the text: SPR (Biacore T100), enzyme amine-coupled to CM5 chip on GH8-1; endoglucanase from Clostridium thermocellum

For experiment [4], the target named is T4, GH13-6; pig pancreatic α-amylase (Sus scrofa, UniProt P00690).
T4 construct: gene AMY2; native porcine pancreas enzyme from Sigma; biotinylated, on streptavidin chip
T4 sequence (P00690 16-511): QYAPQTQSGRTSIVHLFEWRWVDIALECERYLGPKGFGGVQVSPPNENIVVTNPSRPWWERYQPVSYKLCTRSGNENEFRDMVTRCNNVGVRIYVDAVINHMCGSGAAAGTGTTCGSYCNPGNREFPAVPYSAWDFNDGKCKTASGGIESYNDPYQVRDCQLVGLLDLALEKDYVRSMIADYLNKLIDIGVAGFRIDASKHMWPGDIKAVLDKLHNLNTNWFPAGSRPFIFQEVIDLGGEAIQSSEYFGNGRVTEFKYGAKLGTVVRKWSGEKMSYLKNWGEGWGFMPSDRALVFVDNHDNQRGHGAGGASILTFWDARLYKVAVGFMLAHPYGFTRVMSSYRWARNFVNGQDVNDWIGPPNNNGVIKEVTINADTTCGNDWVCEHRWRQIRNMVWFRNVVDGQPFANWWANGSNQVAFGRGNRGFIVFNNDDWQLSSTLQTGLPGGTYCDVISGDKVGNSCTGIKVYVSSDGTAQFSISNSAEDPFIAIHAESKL
Put plainly: SPR (Biacore T100), biotinylated enzyme on streptavidin chip. The source says: SPR (Biacore T100), biotinylated enzyme on streptavidin chip on GH13-6; pig pancreatic α-amylase
In general terms: Surface plasmon resonance follows binding to a sensor surface in real time, without labels.

For experiment [5], the target named is T3, GH8-1; endoglucanase from Clostridium thermocellum. Put plainly: SPR (Biacore T100), enzyme amine-coupled to CM5 chip. Particulars: immobilised enzyme; ligand 10-5000 μM; weak, not saturable.
Experiment [6] concerns the target T5, GH13-3; E. coli α-amylase (Escherichia coli, UniProt P26612).
T5 construct: gene amyA; commercial recombinant (Prozomix); biotinylated, on streptavidin chip; GH13 subfamily 5 implied by homology to Bacillus sp
T5 sequence (P26612 1-495): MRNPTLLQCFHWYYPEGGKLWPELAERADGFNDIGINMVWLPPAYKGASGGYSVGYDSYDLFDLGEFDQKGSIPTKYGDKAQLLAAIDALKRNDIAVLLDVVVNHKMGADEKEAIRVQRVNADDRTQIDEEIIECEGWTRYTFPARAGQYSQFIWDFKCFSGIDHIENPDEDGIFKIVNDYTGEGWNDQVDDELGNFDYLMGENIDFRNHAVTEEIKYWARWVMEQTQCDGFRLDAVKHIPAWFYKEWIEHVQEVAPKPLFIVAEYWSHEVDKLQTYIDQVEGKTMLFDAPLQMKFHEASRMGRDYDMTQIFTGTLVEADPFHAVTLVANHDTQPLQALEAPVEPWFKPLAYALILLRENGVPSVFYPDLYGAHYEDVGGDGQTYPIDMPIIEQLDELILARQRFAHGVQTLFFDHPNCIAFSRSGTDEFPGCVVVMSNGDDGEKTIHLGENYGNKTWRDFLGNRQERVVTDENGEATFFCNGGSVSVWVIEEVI
Put plainly: SPR (Biacore T100), biotinylated enzyme on streptavidin chip. From the text:
SPR (Biacore T100), biotinylated enzyme on streptavidin chip on GH13-3; E. coli α-amylase

The target of experiment [7] is T6, GH13-5; pullulanase from Bacillus subtilis (Bacillus subtilis, UniProt C0SPA0).
T6 construct: gene amyX; commercial recombinant (Prozomix); contains CBM48; biotinylated, on streptavidin chip
T6 sequence (C0SPA0 1-718): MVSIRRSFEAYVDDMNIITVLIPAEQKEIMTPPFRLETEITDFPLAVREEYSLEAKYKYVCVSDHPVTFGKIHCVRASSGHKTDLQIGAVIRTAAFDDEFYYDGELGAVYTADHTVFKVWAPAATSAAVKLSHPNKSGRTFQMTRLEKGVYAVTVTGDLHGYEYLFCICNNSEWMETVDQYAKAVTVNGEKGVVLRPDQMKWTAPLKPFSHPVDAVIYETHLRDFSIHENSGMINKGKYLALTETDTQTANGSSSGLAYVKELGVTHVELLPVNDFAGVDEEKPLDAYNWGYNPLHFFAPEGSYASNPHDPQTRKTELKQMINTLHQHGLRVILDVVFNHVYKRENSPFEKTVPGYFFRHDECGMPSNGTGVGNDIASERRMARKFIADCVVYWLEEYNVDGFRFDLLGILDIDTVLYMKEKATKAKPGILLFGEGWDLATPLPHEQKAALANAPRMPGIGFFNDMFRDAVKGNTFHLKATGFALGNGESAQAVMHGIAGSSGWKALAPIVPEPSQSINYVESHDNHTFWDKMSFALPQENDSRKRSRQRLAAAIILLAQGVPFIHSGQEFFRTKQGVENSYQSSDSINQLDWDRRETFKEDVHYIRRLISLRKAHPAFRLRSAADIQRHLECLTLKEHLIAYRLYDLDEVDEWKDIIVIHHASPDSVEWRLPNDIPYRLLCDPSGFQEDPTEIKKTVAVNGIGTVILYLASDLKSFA
The description is as above. From the text:
SPR (Biacore T100), biotinylated enzyme on streptavidin chip on GH13-5; pullulanase from Bacillus subtilis

Consider `OC[C@H]1O[C@@H](O[C@H]2[C@H](O)[C@@H](O)[C@H](O[C@H]3[C@H](O)[C@@H](O)[C@H](O[C@H]4[C@H](O)[C@@H](O)[C@H](O[C@H]5[C@H](O)[C@@H](O)C(O)O[C@@H]5CO)O[C@@H]4CO)O[C@@H]3CO)O[C@@H]2CO)[C@H](O)[C@@H](O)[C@@H]1O` (stereo partly drawn) [cellopentaose], for which the values for the Kd in experiment [1], in experiment [2] and in experiment [3] were 2070 ± 780 µM, 330 ± 110 µM and 860 ± 90 µM, respectively.
In experiment [4] (one-site fit, immobilised enzyme, stoichiometry above 1 (several sites)), `OC[C@H]1O[C@H](O[C@H]2[C@H](O)[C@@H](O)[C@@H](O[C@H]3[C@H](O)[C@@H](O)[C@@H](O[C@H]4[C@H](O)[C@@H](O)[C@@H](O[C@H]5[C@H](O)[C@@H](O)[C@@H](O[C@H]6[C@H](O)[C@@H](O)C(O)O[C@@H]6CO)O[C@@H]5CO)O[C@@H]4CO)O[C@@H]3CO)O[C@@H]2CO)[C@H](O)[C@@H](O)[C@@H]1O` (stereo partly drawn) [maltohexaose] came in with a Kd of 1330 ± 120 µM.
Take `OC[C@H]1O[C@H](O[C@H]2[C@H](O)[C@@H](O)[C@@H](O[C@H]3[C@H](O)[C@@H](O)[C@@H](O[C@H]4[C@H](O)[C@@H](O)C(O)O[C@@H]4CO)O[C@@H]3CO)O[C@@H]2CO)[C@H](O)[C@@H](O)[C@@H]1O` (stereo partly drawn) [maltotetraose]: in experiment [5], the NS entry was “GH8-1 interacts weakly with these oligosaccharides”.
Regarding `OC1OC[C@@H](O[C@@H]2OC[C@@H](O[C@@H]3OC[C@@H](O[C@@H]4OC[C@@H](O)[C@H](O)[C@H]4O)[C@H](O)[C@H]3O)[C@H](O)[C@H]2O)[C@H](O)[C@H]1O` (stereo partly drawn) [xylotetraose], the NS entry in experiment [5] is on record as “GH8-1 interacts weakly with these oligosaccharides”.
Turning to `OC[C@H]1O[C@@H]2O[C@H]3[C@H](O)[C@@H](O)[C@@H](O[C@H]4[C@H](O)[C@@H](O)[C@@H](O[C@H]5[C@H](O)[C@@H](O)[C@@H](O[C@H]6[C@H](O)[C@@H](O)[C@@H](O[C@H]7[C@H](O)[C@@H](O)[C@@H](O[C@H]8[C@H](O)[C@@H](O)[C@@H](O[C@H]1[C@H](O)[C@H]2O)O[C@@H]8CO)O[C@@H]7CO)O[C@@H]6CO)O[C@@H]5CO)O[C@@H]4CO)O[C@@H]3CO` [β-cyclodextrin], the Kd in experiment [4] came out at 870 ± 400 µM; in experiment [6], 1360 ± 50 µM; in experiment [7], 970 ± 130 µM.
